This is an account of results in ChEMBL document CHEMBL1201862, “PubChem BioAssay data set” (2004).

Assay in all cases: inhibition of tumour cell growth, NCI panel, 48 h
In test [1] the test system is UACC-62.
Test [2] deals with NCI-H460.
The test system of test [3] is K562.
Test [4] relates to DU-145.
In test [5] the test system is TK-10.
In test [6] the test system is HL-60.
Test [7] has as its system 786-0.
The subject of test [8] is OVCAR-8.
Test [9] deals with NCI-H226.
Test [10] has as its system MDA-MB-231.
The test system of test [11] is BT-549.
Test [12] relates to UO-31.
The test system of test [13] is MOLT-4.
For test [14], the system named is Malme-3M.
The test system of test [15] is SK-MEL-28.
Test [16] has as its system PC-3.
Test [17] deals with MDA-MB-435.
The test system of test [18] is CAKI-1.
Test [19] deals with OVCAR-4.
For test [20], the system named is NCI-H23.

Molecules are shown by their SMILES.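 48-hour exposure; five concentrations; linearly interpolated endpoints. Abbreviation: GI50, concentration required for 50% inhibition of growth.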 Activity calls are given as the source filed them. No stated cut-off is given here; in the data, active = GI50 up to about 1.1 µM and inactive = higher.

In the case of `COC1/C=C\C=C(/C)C(=O)NC2=CC(=O)C(N)=C(CC(C)CC(OC)C(O)C(C)C=C(C)C1OC(N)=O)C2=O` (stereo not given), the GI50 in test [1] is 0.0247 µM (active); in test [2], < 0.01 µM (active); in test [3], 0.0204 µM (active); in [4] it was < 0.0199 µM (active); in test [5], 0.321 µM (active); in test [6], 0.0585 µM (active). The GI50 in test [7] is 0.368 µM (active); in test [8], < 0.0203 µM (active); in test [9], 5.87 µM (inactive); in test [10], < 0.0187 µM (active); in test [11], 11.8 µM (inactive); in test [12], 0.184 µM (active). Also, the GI50 in test [13] was 0.15 µM (active); in test [14], 0.0231 µM (active); in [15], < 0.0266 µM (active); in test [16], 0.293 µM (active); in [17], < 0.0191 µM (active); in test [18] it was 0.977 µM (active). Moreover, the GI50 in test [19] is 4.07 µM (inactive); in [20], < 0.0212 µM (active).
Regarding `CC12Cc3cc4c(cc3C1(c1ccc([N+](=O)[O-])cc1)OCCO2)OCO4` (stereo not given), the GI50 in [1] is 36.8 µM (inactive); in test [2], 70.3 µM (inactive); in [3] it was > 100 µM (inactive); in [4] it was 87.1 µM (inactive); in test [5], 37.8 µM (inactive); in [6] it was > 100 µM (inactive). Also, the GI50 was 47.9 µM (inactive) in [7]; 22.4 µM (inactive) in [8]; 26.2 µM (inactive) in test [9]; 14.9 µM (inactive) in [10]; 25.5 µM (inactive) in [11]; > 100 µM (inactive) in test [12]. Also, the GI50 in test [13] is > 100 µM (inactive); in test [14], > 100 µM (inactive); in test [15] it was > 100 µM (inactive); in [16] it was 97.7 µM (inactive); in test [17] it was > 100 µM (inactive); in test [18], > 100 µM (inactive). For the same compound, the GI50 is > 100 µM (inactive) in [19] and 42.9 µM (inactive) in test [20].
Turning to `CC(C)CCCCCCCCCCCCC(=O)NCC(=O)NC1C(O)C(O)C(Nc2[nH]cnc3ncnc2-3)OC1C(O)CO` (stereo not given), the GI50 in test [1] was 0.000519 µM (active); in test [2], 0.000541 µM (active); in [3], 0.0436 µM (active); in test [4], 0.19 µM (active); in [5], 0.179 µM (active); in test [6] it was 0.00057 µM (active). Further, the GI50 in test [7] is 0.225 µM (active); in [8], 0.000578 µM (active); in [9], 0.000552 µM (active); in test [10], 0.182 µM (active); in test [11], 0.207 µM (active); in test [12] it was 0.000574 µM (active). For the same compound, the GI50 is 0.0121 µM (active) in test [13]; 0.000679 µM (active) in test [14]; 0.0316 µM (active) in test [15]; 0.183 µM (active) in test [16]; 0.224 µM (active) in [17]; 0.000472 µM (active) in test [18]. Also, the figures for the GI50 in [19] and in test [20] were 0.000492 µM (active) and 0.00125 µM (active), respectively.
Regarding `CC(C)C(/N=C/c1ccccc1O)C(=O)O` (stereo not given), the GI50 in [1], in [2], in test [3], in test [4], in [5] and in test [6] was > 100 µM (inactive) each time. The GI50 in test [7] was > 100 µM (inactive); in test [8] it was > 100 µM (inactive); in [9], > 100 µM (inactive); in test [10] it was 87.9 µM (inactive); in test [11], > 100 µM (inactive); in test [12] it was > 100 µM (inactive). Besides, the GI50 was > 100 µM (inactive) in test [13]; 55.3 µM (inactive) in [14]; > 100 µM (inactive) in [15]; 87.7 µM (inactive) in test [16]; > 100 µM (inactive) in test [17]; > 100 µM (inactive) in test [18]. In addition, the GI50 in test [19] and in test [20] was > 100 µM (inactive) in each case.
In the case of `COc1c(/C=C/C(C)(C)O)cc(C2CC(=O)c3c(O)cc(O)cc3O2)cc1CC=C(C)C` (stereo not given), the GI50 in [1] was 6.79 µM (inactive); in [2], 8.73 µM (inactive); in test [3] it was 10.7 µM (inactive); in test [4], 9.06 µM (inactive); in test [5], 8.67 µM (inactive); in test [6] it was 12.8 µM (inactive). Moreover, the GI50 in test [7] is 9.57 µM (inactive); in test [8] it was 10.8 µM (inactive); in test [9], 9.71 µM (inactive); in test [10], 8.22 µM (inactive); in [11], 8.49 µM (inactive); in test [12], 0.762 µM (active). Further, the GI50 in test [13] is 11.7 µM (inactive); in test [14], 10.1 µM (inactive); in test [15] it was 13.2 µM (inactive); in test [16], 8.53 µM (inactive); in test [17], 8.02 µM (inactive); in [18], 16 µM (inactive). Besides, the GI50 in test [19] is 10.4 µM (inactive); in test [20], 9.02 µM (inactive).
Take `COC(=O)[C@@]12CN(C)[C@@H](C(C)(C)C)N1C(=O)OC2c1ccccc1` (stereo not given in full): the GI50 in [1], in test [2], in test [3], in [4], in test [5] and in test [6] was > 100 µM (inactive) in each case. Besides, the GI50 in [7], in test [8], in test [9], in test [10], in test [11] and in test [12] was > 100 µM (inactive) throughout. Besides, the GI50 in test [13], in test [14], in test [15], in test [16], in [17] and in test [18] was > 100 µM (inactive) in each case. For the same compound, the GI50 in test [19] and in test [20] was > 100 µM (inactive) each time.
Consider `C/C(=C\CSCC(N)C(=O)O)CC/C=C(\C)CNc1ccccc1` (stereo not given), for which the GI50 in test [1], in test [2], in test [3], in test [4], in test [5] and in [6] was > 100 µM (inactive) in each case. For the same compound, the GI50 is > 100 µM (inactive) in test [7]; > 100 µM (inactive) in test [8]; > 100 µM (inactive) in test [9]; > 100 µM (inactive) in test [10]; 64.1 µM (inactive) in test [11]; 82 µM (inactive) in test [12]. Also, the GI50 in test [13], in test [14], in test [15], in test [16], in test [17] and in [18] was > 100 µM (inactive) each time. Besides, the GI50 in test [19] and in test [20] was > 100 µM (inactive) in each case.
`c1ccc(C[N+]23CN4CN(CN(C4)C2)C3)cc1`: the GI50 was 17.3 µM (inactive) in test [1]; 38.2 µM (inactive) in [2]; 29.7 µM (inactive) in test [3]; 27.5 µM (inactive) in test [4]; 84.5 µM (inactive) in test [5]; 24.1 µM (inactive) in [6]. The GI50 in test [7] is 21.1 µM (inactive); in test [8], 30.1 µM (inactive); in test [9], > 100 µM (inactive); in [10] it was 20.1 µM (inactive); in test [11], 48.2 µM (inactive); in [12] it was 20.8 µM (inactive). The GI50 in [13] is 22.7 µM (inactive); in test [14], 57.7 µM (inactive); in [15] it was 26.7 µM (inactive); in test [16], 17 µM (inactive); in [17] it was 22 µM (inactive); in test [18] it was 45.9 µM (inactive). The GI50 in [19] was 36.5 µM (inactive); in test [20] it was 19.1 µM (inactive).
Turning to `CC(=O)OC/C=C(/CCl)CCC(Br)C(C)(C)Br.CC(=O)OC/C=C(\CCl)CCC(Br)C(C)(C)Br` (stereo not given), the GI50 in test [1], in [2], in [3], in test [4], in test [5] and in [6] was > 10 µM (inactive) in each case. In addition, the GI50 in test [7], in test [8], in [9], in [10], in test [11] and in test [12] was > 10 µM (inactive) in each case. Besides, the GI50 in test [13], in test [14], in test [15], in test [16], in [17] and in [18] was > 10 µM (inactive) in each case. The GI50 in test [19] and in test [20] was > 10 µM (inactive) each time.
`CC1(c2ccc(Cl)cc2)CC(c2ccc(Cl)cc2)=C(C#N)C(=C(C#N)C#N)N1` (stereo not given): the GI50 in test [1] is 15.3 µM (inactive); in test [2], 22.9 µM (inactive); in [3], 13.8 µM (inactive); in test [4], 14.9 µM (inactive); in test [5], 17.8 µM (inactive); in test [6], 19.7 µM (inactive). Further, the GI50 in [7] was 11.1 µM (inactive); in [8], 14.9 µM (inactive); in [9], 18.5 µM (inactive); in [10] it was 22.5 µM (inactive); in [11] it was 19.4 µM (inactive); in [12] it was 16.3 µM (inactive). The GI50 in test [13] was 6.81 µM (inactive); in [14], 15.7 µM (inactive); in test [15], 32.7 µM (inactive); in test [16] it was 16.4 µM (inactive); in test [17], 18 µM (inactive); in [18], 16.8 µM (inactive). Further, the GI50 is 14.8 µM (inactive) in [19] and 17.3 µM (inactive) in [20].
